Read-outs that look alike come from different tables or passages of the source.

Holding throughout (experiment): Inhibition of in vitro proliferation of tumor cells (CTG, CellTiter-Glo)
Holding throughout (type): cell-based

Experiment [1] deals with BT474. The conditions noted are these: Homo sapiens, BT-474, 120 h, 5 days of culture, CTG reagent, read-out: Proliferation inhibitory activity IC50 (nM) BT474. The method, then:
(§1) Assay objective: To detect the inhibitory effects of the drug compounds on tumor cell proliferation, for example, the inhibitory activity thereof on the in vitro proliferation of NCI-H716, NCI-H1975, NCI-H1373, NCI-H647, NCI-H520, BT474, DLD-1, NCI-N87, NUGC-4, SNU-423, MKN-45, SK-OV-3, OVCAR3, Ls174T, HCC1954, and ES2 tumor cells. The cells were treated with the compounds at different concentrations in vitro. After 5 days of culture, the proliferation of the cells was detected using the CTG (CellTiter-Glo® Luminescent Cell Viability Assay, Promega, Cat. No. G7558) reagent, and the in vitro activity of the compounds was evaluated based on the IC50 value. 1. Cell preparation: NCI-H716, NCI-H1975, NCI-H1373, NCI-H647, NCI-H520, BT474, DLD-1, NCI-N87, NUGC-4, SNU-423, MKN-45, SK-OV-3, OVCAR3, Ls174T, HCC1954, and ES2 cells in the logarithmic phase were each taken, washed once with PBS, and then digested with 2-3 mL of trypsin for 2-3 min. After the cells were digested completely, 10-15 mL of a cell culture medium was added to elute the digested cells. The eluate was centrifuged at 1000 rpm for 5 min, and the supernatant was discarded. Subsequently, the resulting cells were resuspended in 10-20 mL of the cell culture medium to prepare a single-cell suspension. 2. Cell plating: The NCI-H716, NCI-H1975, NCI-H1373, NCI-H647, NCI-H520, NCI-N87, BT474, DLD-1, NCI-N87, NUGC-4, SNU-423, MKN-45, SK-OV-3, OVCAR3, Ls174T, HCC1954, and ES2 single-cell suspensions were each well mixed and adjusted to a viable cell density of 6 × 10^4 cells/mL with the cell culture medium. The density-adjusted cell suspensions were each well mixed and added to a 96-well cell culture plate at 50 µL/well. The culture plate was incubated in an incubator overnight (37 °C, 5% CO2). 3. Compound preparation: Each compound was dissolved in DMSO to prepare a stock solution with an initial concentration of 10 mM. There were 6 concentrations in total for the small molecule compound: 1000 nM, 333 nM, 111 nM, 37.03 nM, 12.34 nM, and 4.11 nM. 4. Sample addition: The prepared test samples at different concentrations were added to the culture plate, with two duplicate wells set for each sample. The culture plate was incubated in the incubator for 5 days (37 °C, 5% CO2). 5. Color development: The 96-well cell culture plate was taken out, and 50 µL of the CTG reagent was added to each well. The plate was then incubated at room temperature for 10 min. 6. Plate reading: The 96-well cell culture plate was taken out and placed in a microplate reader, and the chemiluminescence was measured using the microplate reader. 7. Data analysis: The cell viability was calculated according to the formula: (Lumtest drug - Lumblank control)/(Lumsolvent blank control - Lumblank control) × 100%. Using a nonlinear regression model in the GraphPad Prism software, a sigmoidal dose-survival rate curve was plotted, and the IC50 values were calculated. Table 2. IC50 values for the inhibition of the in vitro proliferation of tumor cells by the racemates of the small molecule compounds of the present application

The subject of experiment [2] is DLD-1. As to conditions: Homo sapiens, 120 h, DLD-1 cells, 5 days of culture, CTG reagent, read-out: Proliferation inhibitory activity IC50 (nM) DLD-1. The procedure: as §1
The test system of experiment [3] is MKN-45. As to conditions: Homo sapiens, 120 h; racemates; MKN-45 cells; 5 days of culture; CTG reagent; read-out: Proliferation inhibitory activity IC50 (nM) MKN-45. The procedure:
as §1

The subject of experiment [4] is Ls174T. As to conditions: Homo sapiens, 120 h, racemates, 5 days of culture, CTG reagent, read-out: Proliferation inhibitory activity IC50 (nM) Ls174T. The procedure:
as §1

In experiment [5] the test system is HCC1954. The conditions noted are these: Homo sapiens, 120 h, racemates, 5 days of culture, CTG reagent, read-out: Proliferation inhibitory activity IC50 (nM) HCC1954. The procedure:
as §1

The subject of experiment [6] is NCI-N87. The conditions noted are these: Homo sapiens, 120 h, racemates, 5 days of culture, CTG reagent, read-out: Proliferation inhibitory activity IC50 (nM) NCI-N87. The method, then: as §1
The subject of experiment [7] is NUGC-4. As to conditions: Homo sapiens, 120 h; racemates; NUGC-4 cells; 5 days of culture; CTG reagent; read-out: Proliferation inhibitory activity IC50 (nM) NUGC-4. The procedure: as §1
Experiment [8] relates to SK-OV-3. The conditions noted are these: Homo sapiens, 120 h; racemates; SK-OV-3 cells; 5 days of culture; CTG reagent; read-out: Proliferation inhibitory activity IC50 (nM) SK-OV-3. The method, then:
as §1

Experiment [9] has as its system SNU-423. As to conditions: Homo sapiens, 120 h; racemates; SNU-423 cells; 5 days of culture; CTG reagent; read-out: Proliferation inhibitory activity IC50 (nM) SNU-423. The method, then: as §1
Where [10] appears, read: Table 3, chirally resolved compounds.

As to `COc1cc(-c2ncco2)cc2c1[C@]1(O)[C@H](O)[C@H](C(=O)N(C)OC)[C@@H](c3cccc(N)c3)[C@]1(c1ccc(C#N)cc1)O2` [Compound 4], the IC50 in experiment [1] (setting [10]) and in experiment [2] (setting [10]) was less than 10 nM in each case.

In the case of `COc1ccc([C@@]23Oc4cc(-c5ncco5)ccc4[C@]2(O)[C@H](O)[C@H](C(=O)N(C)C)[C@H]3c2ccccc2)cc1` (racemic) [Racemate of compound 57], the IC50 in experiment [2] (racemates) was found to be 2.35 nM.

Regarding `COc1ccc([C@@]23Oc4cc(-c5ncco5)cc(OC)c4[C@]2(O)[C@@H](N(C)C)C[C@H]3c2cccc(N)c2)cc1` (single isomer, unassigned) [Compound 98], the IC50 in experiment [1] (setting [10]) and in experiment [2] (setting [10]) was less than 10 nM throughout.

Consider `COc1ccc([C@@]23Oc4cc(-c5ncco5)cc(OC)c4[C@]2(O)[C@@H](CN)[C@H](CO)[C@H]3c2ccccc2)cc1` (racemic) [Racemate of compound 9], for which the IC50 in experiment [1] (racemates) is 0.829 nM; in experiment [3] it was 0.695 nM.

Take `COc1ccc([C@@]23Oc4cc(-c5ncco5)cc(OC)c4[C@]2(O)[C@@H](CNC(=O)CN(C)C)C[C@H]3c2cccc(N)c2)cc1` (single isomer, unassigned) [Compound 93]: the IC50 in experiment [1] (setting [10]) and in [2] (setting [10]) was less than 10 nM each time.

For the compound `COc1ccc([C@@]23Oc4cc(-c5ncco5)cc(OC)c4[C@]2(O)[C@H](O)C[C@H]3c2cccc(N)c2)cc1` (single isomer, unassigned) [Compound 49], in experiment [1] (setting [10]), the IC50 is less than 10 nM.

For `COc1cc(-c2ncco2)cc2c1[C@]1(O)[C@H](O)[C@H](C(=O)N(C)OC)[C@@H](c3cccc(N)c3)[C@]1(c1ccc(C#N)cc1)O2` (racemic) [Racemate of compound 4], the IC50 in experiment [1] (racemates) was 3.04 nM; in experiment [3] it was 1.4 nM.

On to `COc1ccc([C@@]23Oc4cc(-c5ncco5)cc(OC)c4[C@]2(O)[C@@H](CNC(=O)COCCO)C[C@H]3c2ccccc2)cc1` (racemic) [Racemate of compound 91], for which, in [2] (racemates), the IC50 is 2.16 nM.

For the compound `COc1cnc(-c2cc(OC)c3c(c2)O[C@@]2(c4ccc(C#N)cc4)[C@H](c4cccc(N)c4)[C@@H](C(=O)N(C)OC)[C@@H](O)[C@@]32O)cn1` (racemic) [Racemate of compound 43], the IC50 in [3] came out at 2 nM.

As to `COc1cc(-c2ncc(C(F)(F)F)cn2)cc2c1[C@]1(O)[C@H](O)[C@H](C(=O)N(C)OC)[C@@H](c3cccc(N)c3)[C@]1(c1ccc(C#N)cc1)O2` (racemic) [Racemate of compound 32], the IC50 in experiment [4] turned out to be 5.45 nM.

As for `COc1ccc([C@@]23Oc4cc(OC)cc(OC)c4[C@]2(O)[C@H](O)[C@H](C(=O)N(C)C)[C@H]3c2ccccc2)cc1` [Rocaglamide, reference compound], the IC50 in experiment [1] (racemates) turned out to be 5.49 nM; in experiment [2] (racemates) it was 8.19 nM; in [5], 2.66 nM; in experiment [4], 6.08 nM; in [3] it was 5.75 nM; in experiment [6], 9.32 nM. Further, the IC50 in experiment [7] turned out to be 8.25 nM; in experiment [8] it was 8.52 nM; in experiment [9], 14.4 nM.

Regarding `COc1ccc([C@@]23Oc4cc(-c5ncco5)cc(OC)c4[C@]2(O)[C@@H](CNC(=O)[C@H](CO)N(C)C)C[C@H]3c2ccccc2)cc1` (racemic) [Racemate of compound 89], the IC50 in [2] (racemates) amounted to 1.35 nM.

Regarding `COc1ccc([C@@]23Oc4cc(-c5ncco5)cc(OC)c4[C@]2(O)[C@@H](CNC(=O)CN(C)C)C[C@H]3c2cccc(N)c2)cc1` (racemic) [Racemate of compound 93], in experiment [5], the IC50 was 1.5 nM.

Regarding `COc1cnc(-c2cc(OC)c3c(c2)O[C@@]2(c4ccc(C#N)cc4)[C@H](c4cccc(N)c4)[C@@H](C(=O)N(C)OC)[C@@H](O)[C@@]32O)nc1` (racemic) [Racemate of compound 31], in experiment [3], the IC50 came to 1.32 nM.

In the case of `COc1ccc([C@@]23Oc4cc(-c5ncco5)cc(OC)c4[C@]2(O)[C@H](O)[C@H](C(=O)N2CC(O)C2)[C@H]3c2ccccc2)cc1` (racemic) [Racemate of compound 48], the IC50 in experiment [1] (racemates) came out at 2.25 nM.

Regarding `COC(=O)[C@H]1[C@@H](O)[C@@]2(O)c3c(OC)cc(-c4ncco4)cc3O[C@@]2(c2ccc(C#N)cc2)[C@@H]1c1cccc(N)c1` (racemic) [Racemate of compound 2], the IC50 in [1] (racemates) was 3.33 nM; in [6], 2.07 nM; in experiment [7] it was 1.98 nM; in experiment [8] it was 2.05 nM; in experiment [9] it was 3.67 nM.

For the compound `COC(=O)[C@H]1[C@@H](O)[C@@]2(O)c3c(OC)cc(-c4cnco4)cc3O[C@@]2(c2ccc(C#N)cc2)[C@@H]1c1cccc(N)c1` (racemic) [Racemate of compound 3], the results for the IC50 in [6], in experiment [7] and in experiment [9] were 3.63 nM, 3.51 nM and 8.18 nM, respectively.

In the case of `COc1ccc([C@@]23Oc4cc(-c5ncco5)cc(OC)c4[C@]2(O)[C@@H](C#N)C[C@H]3c2cccc(N)c2)cc1` (racemic) [Racemate of compound 86], the IC50 in experiment [2] (racemates) came to 2.99 nM; in [5] it was 2.15 nM.

Turning to `COc1cc(-c2ncco2)cc2c1[C@]1(O)[C@H](O)[C@H](C(=O)N(C)OC)[C@@H](c3cccc(O)c3)[C@]1(c1ccc(C#N)cc1)O2` (racemic) [Racemate of compound 15], the IC50 in experiment [3] was 2.65 nM.

For `COc1ccc([C@@]23Oc4cc(-c5nc(CO)co5)cc(OC)c4[C@]2(O)[C@@H](N(C)C)C[C@H]3c2ccccc2)cc1` (racemic) [Racemate of compound 107], in [2] (racemates), the IC50 came out at 0.92 nM.

With `COc1ccc([C@@]23Oc4cc(-c5ncco5)cc(OC)c4[C@]2(O)[C@@H](CNC(=O)NO)C[C@H]3c2ccccc2)cc1` (racemic) [Racemate of compound 87], the IC50 in [2] (racemates) worked out at 2.84 nM.

As to `COc1cc(-c2ncco2)cc2c1[C@]1(O)[C@H](O)[C@H](C(=O)N3CC(O)C3)[C@@H](c3ccccc3)[C@]1(c1ccc(C#N)cc1)O2` (racemic) [Racemate of compound 16], the IC50 in [3] came out at 2.34 nM.

In the case of `COc1cc(-c2ncc(C#N)cn2)cc2c1[C@]1(O)[C@H](O)[C@H](C(=O)N(C)OC)[C@@H](c3cccc(N)c3)[C@]1(c1ccc(C#N)cc1)O2` (racemic) [Racemate of compound 30], in experiment [3], the IC50 was found to be 1.5 nM.

For `COc1cc(-c2cscn2)cc2c1[C@]1(O)[C@H](O)[C@H](C(=O)N(C)C)[C@@H](c3cccc(N)c3)[C@]1(c1ccc(C#N)cc1)O2` (racemic) [Racemate of compound 111], the IC50 in experiment [5] is 2.98 nM.

Source of the values: EP4803517A1, “PROTEIN TRANSLATION INHIBITOR” (Duality Biologics (Shanghai) Co., Ltd., priority 2023, dated 2025).
